Our source for the IC50 values is patent US20170037028A1 (BAYER PHARMA AKTIENGESELLSCHAFT, priority 2013, published 2017).

The test deals with T1, GLUT1 (Homo sapiens, UniProt P11166).
T1 sequence (P11166 1-492): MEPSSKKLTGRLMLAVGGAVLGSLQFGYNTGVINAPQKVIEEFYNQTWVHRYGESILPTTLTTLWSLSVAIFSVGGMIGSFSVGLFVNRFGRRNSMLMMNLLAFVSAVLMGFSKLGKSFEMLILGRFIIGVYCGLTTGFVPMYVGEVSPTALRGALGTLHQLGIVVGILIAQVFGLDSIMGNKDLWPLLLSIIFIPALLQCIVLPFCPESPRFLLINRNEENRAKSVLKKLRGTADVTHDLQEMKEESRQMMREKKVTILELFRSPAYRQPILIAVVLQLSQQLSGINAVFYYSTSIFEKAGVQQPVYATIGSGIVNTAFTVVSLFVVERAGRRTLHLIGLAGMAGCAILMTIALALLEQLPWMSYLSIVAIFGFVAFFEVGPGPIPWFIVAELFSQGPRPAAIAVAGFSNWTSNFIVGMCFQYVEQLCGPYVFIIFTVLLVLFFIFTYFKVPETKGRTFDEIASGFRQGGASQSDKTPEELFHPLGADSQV
The test can be described thus: Indirect measurement of GLUT1 activity by quantification of intracellular ATP levels (glucose induced ATP increase). Type of test: cell-based. Set-up: endogenous in cells; host or cells: DLD1 or CHO-K1. Conditions: read-out: IC50 regarding glucose induced ATP increase (GLUT1 inhibition). The essentials:
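DLD1 or CHO-K1 cells were starved overnight in glucose-free medium with 1% FCS, then combined with an oxidative phosphorylation inhibitor. GLUT1 activity was read as glucose-induced ATP increase, GLUT2 as fructose-induced. Intracellular ATP was quantified by CellTiter-Glo luminescence.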
On to `Cc1nn(Cc2ccc(F)cc2)c(C)c1NC(=O)c1cc(N(C)C)nc2ccccc12` [Example 163, 2-(dimethylamino)-N-[1-(4-fluorobenzyl)-3,5-dimethyl-1H-pyrazol-4-yl]quinoline-4-carboxamide], for which the IC50 was found to be 25 nM.

In the case of `Cc1c(NC(=O)c2cc(C(N)=O)nc3cc(F)c(Cl)cc23)c(C(F)(F)F)nn1Cc1ccc(F)c(F)c1` [Example 1444], the IC50 stood at 11.6 nM.

In the case of `Cc1nn(Cc2ccc(C(=O)N3CCOCC3)cc2)c(C)c1NC(=O)c1cc(C(F)(F)F)nc2ccc(Br)cc12` [Example 141, 6-bromo-N-{3,5-dimethyl-1-[4-(morpholin-4-ylcarbonyl)benzyl]-1H-pyrazol-4-yl}-2-(trifluoromethyl)quinoline-4-carboxamide], the IC50 was found to be 69.4 nM.

Regarding `Cc1nn(Cc2ccc(C(=O)Nc3ccncn3)cc2)c(C)c1NC(=O)c1cc(C(F)(F)F)nc2ccc(Br)cc12` [Example 1158], the IC50 was 155 nM.

In the case of `CNC(=O)c1ccc(Cn2nc(C)c(NC(=O)c3cc(C(N)=O)nc4cc(F)ccc34)c2C)cc1` [Example 1425], the IC50 was 56.3 nM.

As to `Cc1c(NC(=O)c2cc(C(N)=O)nc3ccccc23)c(C(F)(F)F)nn1Cc1cccc(C(C)O)c1` (racemic) [Example 1644], the IC50 came out at 184 nM.

As to `Cc1c(NC(=O)c2cc(C(N)=O)nc3ccccc23)c(C(F)(F)F)nn1Cc1ncccc1C#N` [Example 1393], the IC50 was 15 nM.

With `Cc1nn(CC2CCCO2)c(C)c1NC(=O)c1cc(C(F)(F)F)nc2ccc(Br)cc12` (centres unmarked) [Example 1175], the 50% inhibitory concentration (IC50) stood at 205 nM.

Take `Cc1ccccc1Cn1nc(C(F)(F)F)c(NC(=O)c2cc(C(N)=O)nc3cc(F)c(Cl)cc23)c1C` [Example 1497]: the 50% inhibitory concentration (IC50) was determined as 4.3 nM.

For the compound `Cc1nn(Cc2cc(C(C)C)no2)c(C)c1NC(=O)c1cc(C(N)=O)nc2cc(F)c(Cl)cc12` [Example 416, 6-chloro-N^4-(3,5-dimethyl-1-{[3-(propan-2-yl)-1,2-oxazol-5-yl]methyl}-1H-pyrazol-4-yl)-7-fluoroquinoline-2,4-dicarboxamide], the IC50 was 2.7 nM.

For `Cc1nn(Cc2ccccc2F)c(C)c1NC(=O)c1cc(C(F)(F)F)nc2ccc(Br)cc12` [Example 74, 6-bromo-N-[1-(2-fluorobenzyl)-3,5-dimethyl-1H-pyrazol-4-yl]-2-(trifluoromethyl)quinoline-4-carboxamide], the IC50 amounted to 181 nM.

Consider `Cc1nn(Cc2ccc(C(=O)NCC(N)=O)cc2)c(C)c1NC(=O)c1cc(C(F)(F)F)nc2ccc(Br)cc12` [Example 1223], for which the IC50 is 891 nM.

As for `COCc1noc(Cn2nc(C)c(NC(=O)c3cc(C(N)=O)nc4ccccc34)c2C)n1` [Example 1508], the IC50 is 107 nM.

As to `CNC(=O)c1ccc(Cn2nc(C)c(NC(=O)c3cc(C(F)(F)F)nc4ccc(Br)cc34)c2C)cc1` [Example 135, 6-bromo-N-{3,5-dimethyl-1-[4-(methylcarbamoyl)benzyl]-1H-pyrazol-4-yl}-2-(trifluoromethyl)quinoline-4-carboxamide], the 50% inhibitory concentration (IC50) was 8.1 nM.

On to `Cc1c(NC(=O)c2cc(C(N)=O)nc3cc(F)ccc23)c(C(F)(F)F)nn1Cc1c(F)cc(C#N)cc1F` [Example 395, N^4-[1-(4-cyano-2,6-difluorobenzyl)-5-methyl-3-(trifluoromethyl)-1H-pyrazol-4-yl]-7-fluoroquinoline-2,4-dicarboxamide], for which the IC50 was 5.3 nM.

With `Cc1nn(Cc2ccc(C#N)cc2F)c(C)c1NC(=O)c1cc(C(N)=O)nc2ccc(Br)cc12` [Example 299, 6-bromo-N^4-[1-(4-cyano-2-fluorobenzyl)-3,5-dimethyl-1H-pyrazol-4-yl]quinoline-2,4-dicarboxamide], the IC50 stood at 6.8 nM.

`Cc1nn(CC2CCCCC2)c(C)c1NC(=O)c1cc(C(F)(F)F)nc2cc(F)c(F)cc12` [Example 195, N-[1-(cyclohexylmethyl)-3,5-dimethyl-1H-pyrazol-4-yl]-6,7-difluoro-2-(trifluoromethyl)quinoline-4-carboxamide]: the IC50 stood at 272 nM.

With `Cc1nn(Cc2cccnc2C#N)c(C)c1NC(=O)c1cc(C(F)(F)F)nc2ccc(Br)cc12` [Example 1118], the IC50 stood at 63.5 nM.

As to `Cc1nn(Cc2ccc(C(=O)NC(CO)CO)cc2)c(C)c1NC(=O)c1cc(C(F)(F)F)nc2ccc(Br)cc12` [Example 1122], the IC50 is 67.3 nM.

`Cc1nn(Cc2ccc(C(=O)NCCn3cccn3)cc2)c(C)c1NC(=O)c1cc(C(F)(F)F)nc2ccc(Br)cc12` [Example 1106]: the IC50 was 49.6 nM.

`Cc1nn(CCN2CCCCC2)c(C)c1NC(=O)c1cc(C(F)(F)F)nc2ccc(Br)cc12` [Example 1220]: the concentration for half-maximal inhibition (IC50) was found to be 723 nM.

With `COc1ccc(Cn2nc(C)c(NC(=O)c3cc(C(F)(F)F)nc4ccc(Br)cc34)c2C)cn1` [Example 1025], the IC50 turned out to be 2.8 nM.

Consider `Cc1nn(Cc2c(F)cc(C#N)cc2F)c(C)c1NC(=O)c1cc(C(N)=O)nc2cc(F)ccc12` [Example 390, N^4-[1-(4-cyano-2,6-difluorobenzyl)-3,5-dimethyl-1H-pyrazol-4-yl]-7-fluoroquinoline-2,4-dicarboxamide], for which the IC50 is 5.5 nM.

`Cc1cccc(Cn2nc(C)c(NC(=O)c3cc(C(F)(F)F)nc4c(Cl)cc(Cl)cc34)c2C)c1` [Example 28, 6,8-dichloro-N-[3,5-dimethyl-1-(3-methylbenzyl)-1H-pyrazol-4-yl]-2-(trifluoromethyl)quinoline-4-carboxamide]: the IC50 stood at 16.8 nM.

For `Cc1c(NC(=O)c2cc(C(N)=O)nc3ccccc23)c(C(F)(F)F)nn1Cc1nc(C(=O)O)co1` [Example 1684], the half-inhibitory concentration (IC50) amounted to 721 nM.

For the compound `COCCN(C(=O)c1cc(C(F)(F)F)nc2ccc(Br)cc12)c1c(C)nn(Cc2ccc(F)cc2)c1C` [Example 194, 6-bromo-N-[1-(4-fluorobenzyl)-3,5-dimethyl-1H-pyrazol-4-yl]-N-(2-methoxyethyl)-2-(trifluoromethyl)quinoline-4-carboxamide], the IC50 is 229 nM.

Regarding `Cc1nn(Cc2c(F)cccc2F)c(C)c1NC(=O)c1cc(C(N)=O)nc2cccc(F)c12` [Example 1633], the half-maximal inhibitory concentration (IC50) was 4.6 nM.

Turning to `Cc1nn(Cc2ccccc2)c(C)c1NC(=O)c1cc(C(F)(F)F)nc2c(Cl)cc(Cl)cc12` [Example 59, N-(1-benzyl-3,5-dimethyl-1H-pyrazol-4-yl)-6,8-dichloro-2-(trifluoromethyl)quinoline-4-carboxamide], the IC50 came out at 92.6 nM.

Regarding `Cc1nn(Cc2ccc(F)cc2C#N)c(C)c1NC(=O)c1cc(C(N)=O)nc2cccc(F)c12` [Example 1662], the IC50 was 4 nM.

Take `Cc1nn(Cc2ccc(CC(=O)Nc3ccccc3)cc2)c(C)c1NC(=O)c1cc(C(F)(F)F)nc2ccc(Br)cc12` [Example 155, 6-bromo-N-(3,5-dimethyl-1-{4-[2-oxo-2-(phenylamino)ethyl]benzyl}-1H-pyrazol-4-yl)-2-(trifluoromethyl)quinoline-4-carboxamide]: the IC50 was 312 nM.

For the compound `COc1cccc(Cn2nc(C)c(NC(=O)c3cc(C(N)=O)nc4cc(F)ccc34)c2C)c1` [Example 1459], the IC50 was 9.8 nM.

As to `Cc1nn(Cc2ccc(C#N)cc2)c(C)c1NC(=O)c1cc(C(=O)NCCN2CCOCC2)nc2cc(F)ccc12` [Example 1402], the IC50 stood at 238 nM.

On to `Cc1cc(C(=O)Nc2c(C)nn(Cc3ccc(F)cc3)c2C)c2cc(F)ccc2n1` [Example 90, 6-fluoro-N-[1-(4-fluorobenzyl)-3,5-dimethyl-1H-pyrazol-4-yl]-2-methylquinoline-4-carboxamide], for which the IC50 was 291 nM.

Regarding `Cc1c(NC(=O)c2cc(C(N)=O)nc3cc(F)ccc23)c(C(F)(F)F)nn1Cc1ccc(C(C)C)cc1` [Example 1406], the IC50 turned out to be 119 nM.

On to `Cc1cc(C(=O)Nc2c(C)nn(Cc3ccc(F)cc3)c2C)c2ccc(Br)cc2n1` [Example 1277], for which the IC50 came out at 3850 nM.

Consider `Cc1c(NC(=O)c2cc(C(N)=O)nc3cc(F)ccc23)c(C(F)(F)F)nn1Cc1ccc(F)c(F)c1` [Example 1396], for which the concentration for half-maximal inhibition (IC50) was found to be 4.6 nM.

With `COc1cc(C(=O)Nc2c(C)nn(Cc3ccccn3)c2C)c2ccccc2n1` [Example 110, N-[3,5-dimethyl-1-(pyridin-2-ylmethyl)-1H-pyrazol-4-yl]-2-methoxyquinoline-4-carboxamide], the IC50 was 708 nM.

Consider `Cc1c(NC(=O)c2cc(C(F)(F)F)nc3ccc(Br)cc23)c(C(F)(F)F)nn1Cc1ccc(C(N)=O)cn1` [Example 1076], for which the IC50 was found to be 22.7 nM.

Consider `Cc1nn(Cc2ncccc2C#N)c(C)c1NC(=O)c1cc(C(N)=O)nc2cc(F)ccc12` [Example 1409], for which the IC50 stood at 11.1 nM.

As to `Cc1c(NC(=O)c2cc(C(N)=O)nc3cc(F)ccc23)c(C(F)(F)F)nn1C(C)c1ccccc1` (single isomer, unassigned) [Example 335, (R or S)-7-fluoro-N^4-[5-methyl-1-(1-phenylethyl)-3-(trifluoromethyl)-1H-pyrazol-4-yl]quinoline-2,4-dicarboxamide], the IC50 was 1.6 nM.

As to `Cc1cc(Cn2nc(C(F)(F)F)c(NC(=O)c3cc(C(N)=O)nc4cc(F)c(Cl)cc34)c2C)no1` [Example 408, 6-chloro-7-fluoro-N^4-{5-methyl-1-[(5-methyl-1,2-oxazol-3-yl)methyl]-3-(trifluoromethyl)-1H-pyrazol-4-yl}quinoline-2,4-dicarboxamide], the IC50 is 7.8 nM.

For orientation: IC50 means the concentration that gives 50% inhibition.
